Results: the supplement of paper PMC10307832

Tests used:
Assay in all cases: relative viability (nuclei count vs DMSO), 5 days (fraction); higher = more cells survive
Vismodegib + Alpelisib = compound: CS(=O)(=O)c1ccc(C(=O)Nc2ccc(Cl)c(-c3ccccn3)c2)c(Cl)c1 [Vismodegib] + Cc1nc(NC(=O)N2CCC[C@H]2C(N)=O)sc1-c1ccnc(C(C)(C)C(F)(F)F)c1 [Alpelisib] (partner 2 µM)
Summary of the method: (§1)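 Lung cancer cell lines were pin-tool dosed in 1536-well plates on the day after seeding, with either a lone drug or a fixed anchor-drug dose plus five library-drug doses (not always all listed) in √10 steps. Nuclei were counted on 4× images after 5 days. Relative viability is the ratio of treated-well to vehicle-well nuclei counts, with each value a median of duplicate plates.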

Vismodegib + Decitabine = compound: CS(=O)(=O)c1ccc(C(=O)Nc2ccc(Cl)c(-c3ccccn3)c2)c(Cl)c1 [Vismodegib] + Nc1ncn([C@H]2C[C@H](O)[C@@H](CO)O2)c(=O)n1 [Decitabine] (partner 2 µM)
Summary of the method: as §1

Ruxolitinib + Vorinostat = compound: N#CC[C@H](C1CCCC1)n1cc(-c2ncnc3[nH]ccc23)cn1 [Ruxolitinib] + O=C(CCCCCCC(=O)Nc1ccccc1)NO [Vorinostat] (partner 1 µM)
Summary of the method: as §1

[1] = compound: N#CC[C@H](C1CCCC1)n1cc(-c2ncnc3[nH]ccc23)cn1 [Ruxolitinib] + CC(=O)c1c(C)c2cnc(Nc3ccc(N4CCNCC4)cn3)nc2n(C2CCCC2)c1=O [Palbociclib] (partner 0.5 µM)
Summary of the method: as §1

Row | Cell Line | relative viability (Vismodegib + Alpelisib; first compound 0.08 µM) | relative viability (Vismodegib + Alpelisib; first compound 0.253 µM) | relative viability (Vismodegib + Alpelisib; first compound 0.8 µM) | relative viability (Vismodegib + Alpelisib; first compound 2.53 µM) | relative viability (Vismodegib + Alpelisib; first compound 8 µM) | relative viability (Vismodegib + Decitabine; first compound 0.08 µM) | relative viability (Vismodegib + Decitabine; first compound 0.253 µM) | relative viability (Vismodegib + Decitabine; first compound 0.8 µM) | relative viability (Vismodegib + Decitabine; first compound 2.53 µM) | relative viability (Vismodegib + Decitabine; first compound 8 µM) | relative viability (Ruxolitinib + Vorinostat; first compound 0.253 µM) | relative viability (Ruxolitinib + Vorinostat; first compound 0.8 µM) | relative viability (Ruxolitinib + Vorinostat; first compound 2.53 µM) | relative viability (Ruxolitinib + Vorinostat; first compound 8 µM) | relative viability ([1]; first compound 0.253 µM) | relative viability ([1]; first compound 0.8 µM) | relative viability ([1]; first compound 2.53 µM) | relative viability ([1]; first compound 8 µM) | relative viability (Ruxolitinib + Vorinostat; first compound 0.08 µM) | relative viability ([1]; first compound 0.08 µM)
1 | PC-3 [JPC-3] | 0.971 | 1.04 | 1.04 | 0.941 | 0.972 | 0.863 | 0.838 | 0.904 | 0.814 | 0.864 | 0.778 | 0.809 | 0.875 | 0.696 | 0.596 | 0.579 | 0.566 | 0.553 | – | –
2 | NCI-H2009 | 1.12 | 1.14 | 1.19 | 1.11 | 1.22 | 0.363 | 0.377 | 0.366 | 0.416 | 0.344 | 0.71 | 0.722 | 0.631 | 0.507 | 0.216 | 0.241 | 0.154 | 0.139 | 0.715 | 0.289
3 | LK-2 | 1.24 | 1.04 | 0.805 | 0.952 | 1.22 | 0.356 | 0.253 | 0.282 | 0.283 | 0.28 | 0.26 | 0.254 | 0.287 | 0.209 | 0.696 | 0.787 | 0.701 | 0.686 | 0.265 | 0.863
4 | NCI-H1993 | 0.684 | 0.655 | 0.713 | 0.687 | 0.629 | 0.524 | 0.68 | 0.588 | 0.587 | 0.543 | 0.754 | 0.102 | 0.822 | 0.75 | 0.552 | 0.807 | 0.68 | 0.707 | 0.81 | 0.519
5 | HCC-15 | 0.894 | 0.822 | 0.871 | 0.866 | 0.83 | 0.635 | 0.659 | 0.687 | 0.668 | 0.576 | 0.862 | 0.864 | 0.741 | 0.776 | 0.718 | 0.759 | 0.663 | 0.635 | 0.903 | 0.708
6 | NCI-H322M | 0.813 | 0.756 | 0.744 | 0.917 | 0.773 | 0.694 | 0.651 | 0.661 | 0.822 | 0.635 | 1.01 | 1.05 | 1.3 | 1.4 | 0.488 | 0.536 | 0.645 | 0.563 | 0.951 | 0.503
